Experimental data as given in PubChem BioAssay (NCI).
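Exposure lasted 48 hours, with cells grown in 96-well plates and compounds tested at five concentrations. TGI: total growth inhibition.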

Legend:
Test in all cases: NCI tumour cell line growth inhibition, 48 h
786-0 renal = test system: 786-0 renal
A549 NSCLC = test system: A549 NSCLC
ACHN renal = test system: ACHN renal
BT-549 breast = test system: BT-549 breast
CAKI-1 renal = test system: CAKI-1 renal
COLO 205 colon = test system: COLO 205 colon
DU-145 prostate = test system: DU-145 prostate
EKVX NSCLC = test system: EKVX NSCLC
HCC-2998 colon = test system: HCC-2998 colon
HCT-116 colon = test system: HCT-116 colon
HCT-15 colon = test system: HCT-15 colon
HL-60(TB) leukemia = test system: HL-60(TB) leukemia
HOP-62 NSCLC = test system: HOP-62 NSCLC
HOP-92 NSCLC = test system: HOP-92 NSCLC
HT29 colon = test system: HT29 colon
IGROV1 ovarian = test system: IGROV1 ovarian
K-562 leukemia = test system: K-562 leukemia
KM12 colon = test system: KM12 colon
LOX IMVI melanoma = test system: LOX IMVI melanoma
M14 melanoma = test system: M14 melanoma
MALME-3M melanoma = test system: MALME-3M melanoma
MCF7 breast = test system: MCF7 breast
MDA-MB-435 = test system: MDA-MB-435
MDA-N = test system: MDA-N
MOLT-4 leukemia = test system: MOLT-4 leukemia
NCI-H226 lung = test system: NCI-H226 lung
NCI-H23 lung = test system: NCI-H23 lung
NCI-H460 lung = test system: NCI-H460 lung
NCI-H522 lung = test system: NCI-H522 lung
NCI/ADR-RES ovarian = test system: NCI/ADR-RES ovarian
OVCAR-3 ovarian = test system: OVCAR-3 ovarian
OVCAR-4 ovarian = test system: OVCAR-4 ovarian
OVCAR-5 ovarian = test system: OVCAR-5 ovarian
OVCAR-8 ovarian = test system: OVCAR-8 ovarian
PC-3 prostate = test system: PC-3 prostate
RPMI-8226 leukemia = test system: RPMI-8226 leukemia
RXF 393 renal = test system: RXF 393 renal
SF-268 CNS = test system: SF-268 CNS
SF-295 CNS = test system: SF-295 CNS
SK-MEL-2 melanoma = test system: SK-MEL-2 melanoma
SK-MEL-28 melanoma = test system: SK-MEL-28 melanoma
SK-MEL-5 melanoma = test system: SK-MEL-5 melanoma
SK-OV-3 ovarian = test system: SK-OV-3 ovarian
SN12C renal = test system: SN12C renal
SNB-19 CNS = test system: SNB-19 CNS
SNB-75 CNS = test system: SNB-75 CNS
SR leukemia = test system: SR leukemia
SW-620 colon = test system: SW-620 colon
T-47D breast = test system: T-47D breast
TK-10 renal = test system: TK-10 renal
U251 CNS = test system: U251 CNS
UACC-257 melanoma = test system: UACC-257 melanoma
UACC-62 melanoma = test system: UACC-62 melanoma
UO-31 renal = test system: UO-31 renal
A498 renal = test system: A498 renal
MDA-MB-231 breast = test system: MDA-MB-231 breast
SF-539 CNS = test system: SF-539 CNS

How did the TGI (786-0 renal) turn out when `CC(=O)NC1C(OCc2ccccc2)OC(CO)C(O)C1OCC(=O)NC(C)C(=O)NC(CCC(=O)OCCNC(=O)c1cccc2cc3ccccc3nc12)C(N)=O` (stereo not given) was run?
Its TGI is 70.8 µM.

What about the TGI (A549 NSCLC) of the same compound?
Its TGI is 23.4 µM.

And the TGI (ACHN renal)?
Its TGI is 39.3 µM.

And the TGI (BT-549 breast)?
Its TGI is 45.8 µM.

And the TGI (CAKI-1 renal)?
Its TGI is 30.2 µM.

What about the TGI (COLO 205 colon) of the same compound?
The TGI was 64.8 µM.

What about the TGI (DU-145 prostate) of the same compound?
Its TGI is 26.6 µM.

What about the TGI (EKVX NSCLC) of the same compound?
The TGI was 62.2 µM.

What about the TGI (HCC-2998 colon) of the same compound?
Its TGI is 40.4 µM.

And the TGI (HCT-116 colon)?
The TGI was 31.8 µM.

And the TGI (HCT-15 colon)?
The TGI was 33.6 µM.

What about the TGI (HL-60(TB) leukemia) of the same compound?
The TGI was 57.7 µM.

What about the TGI (HOP-62 NSCLC) of the same compound?
The TGI was 68.9 µM.

And the TGI (HOP-92 NSCLC)?
The TGI was 59 µM.

What about the TGI (HT29 colon) of the same compound?
The TGI was over 100 µM.

And the TGI (IGROV1 ovarian)?
Its TGI is 48.9 µM.

And the TGI (K-562 leukemia)?
Its TGI is over 100 µM.

What about the TGI (KM12 colon) of the same compound?
Its TGI is 56.3 µM.

What about the TGI (LOX IMVI melanoma) of the same compound?
Its TGI is 26.8 µM.

What about the TGI (M14 melanoma) of the same compound?
The TGI was 42.1 µM.

And the TGI (MALME-3M melanoma)?
Its TGI is 31.4 µM.

What about the TGI (MCF7 breast) of the same compound?
Its TGI is over 100 µM.

What about the TGI (MDA-MB-435) of the same compound?
The TGI was 42.4 µM.

And the TGI (MDA-N)?
Its TGI is over 100 µM.

What about the TGI (MOLT-4 leukemia) of the same compound?
Its TGI is over 100 µM.

And the TGI (NCI-H226 lung)?
Its TGI is 44.7 µM.

What about the TGI (NCI-H23 lung) of the same compound?
The TGI was 48.6 µM.

And the TGI (NCI-H460 lung)?
The TGI was 57.8 µM.

And the TGI (NCI-H522 lung)?
The TGI was 34 µM.

And the TGI (NCI/ADR-RES ovarian)?
The TGI was 68.1 µM.

What about the TGI (OVCAR-3 ovarian) of the same compound?
Its TGI is 43.3 µM.

And the TGI (OVCAR-4 ovarian)?
Its TGI is 48.7 µM.

And the TGI (OVCAR-5 ovarian)?
The TGI was 69.3 µM.

What about the TGI (OVCAR-8 ovarian) of the same compound?
Its TGI is 39.4 µM.

What about the TGI (PC-3 prostate) of the same compound?
The TGI was over 100 µM.

What about the TGI (RPMI-8226 leukemia) of the same compound?
The TGI was 19.3 µM.

And the TGI (RXF 393 renal)?
Its TGI is 39.7 µM.

What about the TGI (SF-268 CNS) of the same compound?
The TGI was 67 µM.

What about the TGI (SF-295 CNS) of the same compound?
The TGI was 68.2 µM.

What about the TGI (SK-MEL-2 melanoma) of the same compound?
Its TGI is 70.9 µM.

And the TGI (SK-MEL-28 melanoma)?
Its TGI is 43.3 µM.

What about the TGI (SK-MEL-5 melanoma) of the same compound?
Its TGI is 31.3 µM.

And the TGI (SK-OV-3 ovarian)?
Its TGI is 58.2 µM.

And the TGI (SN12C renal)?
Its TGI is over 100 µM.

What about the TGI (SNB-19 CNS) of the same compound?
Its TGI is 78.8 µM.

And the TGI (SNB-75 CNS)?
The TGI was 51.1 µM.

And the TGI (SR leukemia)?
Its TGI is 45.3 µM.

What about the TGI (SW-620 colon) of the same compound?
The TGI was over 100 µM.

What about the TGI (T-47D breast) of the same compound?
Its TGI is 54.6 µM.

What about the TGI (TK-10 renal) of the same compound?
Its TGI is 41.6 µM.

What about the TGI (U251 CNS) of the same compound?
The TGI was 53.5 µM.

What about the TGI (UACC-257 melanoma) of the same compound?
Its TGI is 66.3 µM.

What about the TGI (UACC-62 melanoma) of the same compound?
Its TGI is 34.3 µM.

What about the TGI (UO-31 renal) of the same compound?
Its TGI is 36.2 µM.

Which results are given for `CCCCNC(=O)C1=C(C)NC(C)=C(C(=O)NCCCC)C1`?
TGI (786-0 renal): > 100 µM; TGI (A498 renal): > 100 µM; TGI (A549 NSCLC): > 100 µM; TGI (ACHN renal): > 100 µM; TGI (BT-549 breast): > 100 µM; TGI (CAKI-1 renal): > 100 µM; TGI (COLO 205 colon): > 100 µM; TGI (DU-145 prostate): > 100 µM; TGI (EKVX NSCLC): > 100 µM; TGI (HCC-2998 colon): > 100 µM; TGI (HCT-116 colon): > 100 µM; TGI (HCT-15 colon): > 100 µM; TGI (HL-60(TB) leukemia): > 100 µM; TGI (HOP-62 NSCLC): > 100 µM; TGI (HOP-92 NSCLC): > 100 µM; TGI (HT29 colon): > 100 µM; TGI (IGROV1 ovarian): > 100 µM; TGI (KM12 colon): > 100 µM; TGI (LOX IMVI melanoma): > 100 µM; TGI (M14 melanoma): > 100 µM; TGI (MCF7 breast): > 100 µM; TGI (MDA-MB-231 breast): > 100 µM; TGI (MDA-MB-435): > 100 µM; TGI (MDA-N): > 100 µM; TGI (MOLT-4 leukemia): > 100 µM; TGI (NCI-H226 lung): > 100 µM; TGI (NCI-H23 lung): > 100 µM; TGI (NCI-H460 lung): > 100 µM; TGI (NCI/ADR-RES ovarian): > 100 µM; TGI (OVCAR-3 ovarian): > 100 µM; TGI (OVCAR-4 ovarian): > 100 µM; TGI (OVCAR-5 ovarian): > 100 µM; TGI (OVCAR-8 ovarian): > 100 µM; TGI (RXF 393 renal): > 100 µM; TGI (SF-268 CNS): > 100 µM; TGI (SF-295 CNS): > 100 µM; TGI (SF-539 CNS): > 100 µM; TGI (SK-MEL-2 melanoma): > 100 µM; TGI (SK-MEL-28 melanoma): > 100 µM; TGI (SK-MEL-5 melanoma): > 100 µM; TGI (SK-OV-3 ovarian): > 100 µM; TGI (SN12C renal): > 100 µM; TGI (SNB-19 CNS): > 100 µM; TGI (SNB-75 CNS): > 100 µM; TGI (SW-620 colon): > 100 µM; TGI (T-47D breast): > 100 µM; TGI (TK-10 renal): > 100 µM; TGI (U251 CNS): > 100 µM; TGI (UACC-257 melanoma): > 100 µM; TGI (UACC-62 melanoma): > 100 µM; TGI (UO-31 renal): > 100 µM
